21 compounds from patent US11510906B1, “Diazacyclobutene derivatives as anti-parasitic drug substances” (Clemson University, priority 2019, dated 2022) can be followed below.

In the experiment the test system is Trypanosoma brucei brucei bloodstream form (BSF) parasites (cell line 90-13, a 427 strain). Briefly: Parasite viability assay (CellTiter Blue), bloodstream form African trypanosomes. It is filed as cell-based. The conditions noted are these: for % BSF Growth Inhibition @ 10 μM: 10 μM compound, 48 hours; for EC50: 48 hours at 37° C., averages of triplicates. The procedure:
To determine the impact of diazacyclobutene derivatives on the growth of African trypanosomes (Trypanosoma brucei brucei) as a representative parasite, bloodstream form (BSF) parasites (cell line 90-13, a 427 strain at 1×10^5 cell/mL) were seeded into 384-well black plates in 40 μL HMI-9 supplemented with 10% fetal bovine serum and 10% Serum Plus (Sigma-Aldrich, St. Louis Mo.) in the presence of compound or equivalently diluted carrier. After 48 hours at 37° C. in 5% CO2, CellTiter Blue (8 μL, Promega, Madison Wis.) was added and the plates incubated an additional 3 hours. Fluorescence emission at A585 was then measured after excitation at A546 on a Synergy H1 Hybrid Reader (Biotek, Winooski Vt.). Averages of triplicates were calculated and fit to dose-response curves using Prism (Graphpad, San Diego Calif.) for the determination of EC50 values.

Where only a bound is given, the exact number is not on record here.

For orientation: EC50 means the concentration at which the effect is half-maximal. As for `CSc1c(-c2ccccc2)n2c(=O)n(-c3ccccc3)c(=O)n12` [Compound 1], the “% BSF Growth Inhibition @ 10 μM” value turned out to be 35.6 ± 1.9% and the EC50 was over 10 µM.

On to `CCSc1c(-c2ccccc2)n2c(=O)n(-c3ccccc3)c(=O)n12` [Compound 2], for which the “% BSF Growth Inhibition @ 10 μM” value is reported as 23.4 ± 5.7% and the EC50 is over 10 µM.

In the case of `CCCSc1c(-c2ccccc2)n2c(=O)n(-c3ccccc3)c(=O)n12` [Compound 3], the “% BSF Growth Inhibition @ 10 μM” value is 96.6 ± 0.3% and the EC50 came to 5.83 ± 2.2 µM.

`CCCCSc1c(-c2ccccc2)n2c(=O)n(-c3ccccc3)c(=O)n12` [Compound 4]: the “% BSF Growth Inhibition @ 10 μM” value is 80.5 ± 2.1% and the EC50 is over 5 µM.

`CCCCCSc1c(-c2ccccc2)n2c(=O)n(-c3ccccc3)c(=O)n12` [Compound 5]: the “% BSF Growth Inhibition @ 10 μM” value amounted to 98.21 ± 0.17% and the concentration for a half-maximal effect (EC50) was determined as 2.65 ± 0.16 µM.

For `CCCCCCCCSc1c(-c2ccccc2)n2c(=O)n(-c3ccccc3)c(=O)n12` [Compound 6], the “% BSF Growth Inhibition @ 10 μM” value worked out at 94.71 ± 3.48% and the EC50 amounted to 2.04 ± 0.21 µM.

With `O=c1n(-c2ccccc2)c(=O)n2c(-c3ccccc3)c(SCc3ccccc3)n12` [Compound 7], the “% BSF Growth Inhibition @ 10 μM” value stood at 98.87 ± 2.68% and the concentration for a half-maximal effect (EC50) was 0.386 ± 0.034 µM.

`O=c1n(-c2ccccc2)c(=O)n2c(-c3ccccc3)c(Sc3ccccc3)n12` [Compound 8]: the “% BSF Growth Inhibition @ 10 μM” value was found to be 11.5 ± 7% and the EC50 is over 10 µM.

`CSc1c(-c2ccc(C)cc2)n2c(=O)n(-c3ccccc3)c(=O)n12` [Compound 9]: the EC50 was over 10 µM.

Consider `CCSc1c(-c2ccc(C)cc2)n2c(=O)n(-c3ccccc3)c(=O)n12` [Compound 10], for which the “% BSF Growth Inhibition @ 10 μM” value was determined as 95.2 ± 3.5% and the EC50 was determined as 3.66 ± 1.7 µM.

For `COc1ccc(-c2c(SC)n3c(=O)n(-c4ccccc4)c(=O)n23)cc1` [Compound 11], the “% BSF Growth Inhibition @ 10 μM” value is reported as 77.1 ± 3.5% and the concentration for a half-maximal effect (EC50) is over 5 µM.

As for `CSc1c(-c2ccc(Cl)cc2)n2c(=O)n(-c3ccccc3)c(=O)n12` [Compound 12], the “% BSF Growth Inhibition @ 10 μM” value is recorded as 62.2 ± 2.7% and the EC50 is over 5 µM.

For the compound `CSc1c(-c2ccc(C(F)(F)F)cc2)n2c(=O)n(-c3ccccc3)c(=O)n12` [Compound 13], the “% BSF Growth Inhibition @ 10 μM” value was 89.6 ± 2.8% and the EC50 was over 2.5 µM.

As for `CCCCc1c(SC)n2c(=O)n(-c3ccccc3)c(=O)n12` [Compound 14], the “% BSF Growth Inhibition @ 10 μM” value is on record as 95.6 ± 1.2% and the EC50 stood at 0.35 ± 0.04 µM.

As to `CCCCSc1c(CCCC)n2c(=O)n(-c3ccccc3)c(=O)n12` [Compound 15], the “% BSF Growth Inhibition @ 10 μM” value is listed as 59.2 ± 6.6%.

For the compound `C[Se]c1c(-c2ccccc2)n2c(=O)n(-c3ccccc3)c(=O)n12` [Compound 17], the “% BSF Growth Inhibition @ 10 μM” value came out at 46.1 ± 6.2% and the EC50 was over 10 µM.

For `O=c1n(-c2ccccc2)c(=O)n2c(-c3ccccc3)c([Se]c3ccccc3)n12` [Compound 18], the “% BSF Growth Inhibition @ 10 μM” value worked out at 84.24 ± 8.21%.

Take `Cc1ccc(S(=O)(=O)N(C)c2c(-c3ccccc3)n3c(=O)n(-c4ccccc4)c(=O)n23)cc1` [Compound 21]: the “% BSF Growth Inhibition @ 10 μM” value turned out to be 2.5 ± 4.3% and the EC50 was over 10 µM.

For `Cc1ccc(S(=O)(=O)N(C)c2c(-c3ccc(C(F)(F)F)cc3)n3c(=O)n(-c4ccccc4)c(=O)n23)cc1` [Compound 22], the “% BSF Growth Inhibition @ 10 μM” value turned out to be 0% and the EC50 is over 10 µM.

As to `CSc1c(-c2ccccc2)n2c(=O)n(-c3cccc(Cl)c3)c(=O)n12` [Compound 23], the EC50 was determined as 7.08 ± 1.9 µM.

In the case of `COc1cccc(-n2c(=O)n3c(SC)c(-c4ccccc4)n3c2=O)c1` [Compound 25], the EC50 was over 10 µM.
